Measurements reported in ChEMBL document CHEMBL1136890, “Design, synthesis and anticancer activities of hybrids of indole and barbituric acids--identification of highly promising leads” (2009).

Assays:
Assay type in all cases: functional
UO-31 = experiment: Growth inhibition of human UO31 cells at 10 uM; settings: read-out: GI
RXF 393 = experiment: Growth inhibition of human RXF393 cells at 10 uM; settings: read-out: GI
TK-10 [1] = experiment: Growth inhibition of human TK10 cells at 10 uM; settings: read-out: GI
OVCAR-5 = experiment: Growth inhibition of human OVCAR5 cells; settings: for CC50: read-out: LC50 (the source's name)
COLO 205 = experiment: Growth inhibition of human COLO205 cells; settings: for CC50: read-out: LC50 (the source's name)
NCI-H226 = experiment: Growth inhibition of human NCI-H226 cells
TK-10 [2] = experiment: Growth inhibition of human TK10 cells; settings: for CC50: read-out: LC50 (the source's name)
CAKI-1 = experiment: Growth inhibition of human Caki1 cells
MDA-MB-468 = experiment: Growth inhibition of human MDA-MB-468 cells; settings: for CC50: read-out: LC50 (the source's name)
[3] = Growth inhibition of human NCI60 cells
IGROV-1 = experiment: Growth inhibition of human IGROV1 cells; settings: for CC50: read-out: LC50 (the source's name)
HOP-92 = experiment: Growth inhibition of human HOP92 cells; settings: for CC50: read-out: LC50 (the source's name)
SF-295 = experiment: Growth inhibition of human SF295 cells; settings: for CC50: read-out: LC50 (the source's name)
OVCAR-4 = experiment: Growth inhibition of human OVCAR4 cells; settings: for CC50: read-out: LC50 (the source's name)
A498 = experiment: Growth inhibition of human A498 cells; settings: for CC50: read-out: LC50 (the source's name)
NCI-H460 = experiment: Growth inhibition of human NCI-H460 cells
K562 = experiment: Growth inhibition of human K562 cells; settings: for CC50: read-out: LC50 (the source's name)
UACC-62 = experiment: Growth inhibition of human UACC62 cells
SK-MEL-2 = experiment: Growth inhibition of human SK-MEL-2 cells; settings: for CC50: read-out: LC50 (the source's name)
T47D = experiment: Growth inhibition of human T47D cells; settings: for CC50: read-out: LC50 (the source's name)

**Q.** Which inhibition of growth at 10 µM (UO-31) does the source give for `O=C1NC(=O)C(=Cc2c[nH]c3ccccc23)C(=O)N1` here?
**A.** Its inhibition of growth at 10 µM is 39%.

**Q.** Which results are given for `Cc1ccc(S(=O)(=O)n2cc(C=C3C(=O)N(C)C(=O)N(C)C3=O)c3ccccc32)cc1`?
**A.** inhibition of growth at 10 µM (UO-31): 41%; inhibition of growth at 10 µM (RXF 393): 52%

**Q.** Which inhibition of growth at 10 µM (UO-31) does the source give for `O=C1NC(=O)C(=Cc2cn(C(=O)c3ccccc3)c3ccccc23)C(=O)N1` here?
**A.** The inhibition of growth at 10 µM was 36%.

**Q.** What about the inhibition of growth at 10 µM (RXF 393) of the same molecule?
**A.** The inhibition of growth at 10 µM was 55%.

**Q.** With `O=C1NC(=O)C(=Cc2cn(Cc3ccccc3)c3ccccc23)C(=O)N1` as the molecule, how does the inhibition of growth at 10 µM (TK-10 [1]) read?
**A.** The inhibition of growth at 10 µM was 71%.

**Q.** What about the inhibition of growth at 10 µM (UO-31) of the same molecule?
**A.** Its inhibition of growth at 10 µM is 29%.

**Q.** What about the GI50 (OVCAR-5) of the same molecule?
**A.** The GI50 was 300 nM.

**Q.** What about the TGI (OVCAR-5) of the same molecule?
**A.** The TGI was 3800 nM.

**Q.** And the CC50 (OVCAR-5)?
**A.** Its CC50 is 39.8 µM.

**Q.** What about the GI50 (COLO 205) of the same molecule?
**A.** The GI50 was 1400 nM.

**Q.** And the TGI (COLO 205)?
**A.** Its TGI is 10.9 µM.

**Q.** And the CC50 (COLO 205)?
**A.** The CC50 was 41.6 µM.

**Q.** What about the GI50 (NCI-H226) of the same molecule?
**A.** The GI50 was 5.4 µM.

**Q.** What about the LC50 (NCI-H226) of the same molecule?
**A.** Its LC50 is over 100 µM.

**Q.** And the TGI (NCI-H226)?
**A.** The TGI was 28 µM.

**Q.** What about the GI50 (TK-10 [2]) of the same molecule?
**A.** Its GI50 is 2000 nM.

**Q.** And the TGI (TK-10 [2])?
**A.** The TGI was 8.3 µM.

**Q.** And the CC50 (TK-10 [2])?
**A.** The CC50 was over 100 µM.

**Q.** And the GI50 (CAKI-1)?
**A.** Its GI50 is 4600 nM.

**Q.** And the LC50 (CAKI-1)?
**A.** The LC50 was 93 µM.

**Q.** And the TGI (CAKI-1)?
**A.** Its TGI is 25.7 µM.

**Q.** And the GI50 (MDA-MB-468)?
**A.** The GI50 was 100 nM.

**Q.** What about the TGI (MDA-MB-468) of the same molecule?
**A.** The TGI was 380 nM.

**Q.** What about the CC50 (MDA-MB-468) of the same molecule?
**A.** The CC50 was over 100000 nM.

**Q.** What about the GI50 [3] of the same molecule?
**A.** The GI50 was 7.5 µM.

**Q.** What about the GI50 (IGROV-1) of the same molecule?
**A.** Its GI50 is 480 nM.

**Q.** And the TGI (IGROV-1)?
**A.** Its TGI is 10.4 µM.

**Q.** What about the CC50 (IGROV-1) of the same molecule?
**A.** Its CC50 is 63 µM.

**Q.** And the GI50 (HOP-92)?
**A.** The GI50 was 1.5 µM.

**Q.** What about the TGI (HOP-92) of the same molecule?
**A.** Its TGI is 15 µM.

**Q.** What about the CC50 (HOP-92) of the same molecule?
**A.** Its CC50 is 58.8 µM.

**Q.** And the GI50 (SF-295)?
**A.** Its GI50 is 3300 nM.

**Q.** And the TGI (SF-295)?
**A.** The TGI was 70.7 µM.

**Q.** And the CC50 (SF-295)?
**A.** The CC50 was over 100 µM.

**Q.** And the GI50 (OVCAR-4)?
**A.** The GI50 was 2 µM.

**Q.** And the TGI (OVCAR-4)?
**A.** The TGI was 44 µM.

**Q.** And the CC50 (OVCAR-4)?
**A.** Its CC50 is over 100 µM.

**Q.** And the GI50 (A498)?
**A.** Its GI50 is 30 nM.

**Q.** And the TGI (A498)?
**A.** Its TGI is 260 nM.

**Q.** And the CC50 (A498)?
**A.** Its CC50 is 1090 nM.

**Q.** What about the GI50 (NCI-H460) of the same molecule?
**A.** The GI50 was 300 nM.

**Q.** What about the LC50 (NCI-H460) of the same molecule?
**A.** Its LC50 is 63 µM.

**Q.** And the TGI (NCI-H460)?
**A.** The TGI was 16.5 µM.

**Q.** What about the GI50 (K562) of the same molecule?
**A.** The GI50 was 3.1 µM.

**Q.** And the TGI (K562)?
**A.** Its TGI is 23 µM.

**Q.** What about the CC50 (K562) of the same molecule?
**A.** The CC50 was over 100 µM.

**Q.** And the GI50 (UACC-62)?
**A.** The GI50 was 1600 nM.

**Q.** And the LC50 (UACC-62)?
**A.** The LC50 was over 100 µM.

**Q.** What about the TGI (UACC-62) of the same molecule?
**A.** The TGI was 16.5 µM.

**Q.** And the GI50 (SK-MEL-2)?
**A.** The GI50 was 2900 nM.

**Q.** What about the TGI (SK-MEL-2) of the same molecule?
**A.** The TGI was 23.4 µM.

**Q.** What about the CC50 (SK-MEL-2) of the same molecule?
**A.** The CC50 was over 100 µM.

**Q.** What about the GI50 (T47D) of the same molecule?
**A.** Its GI50 is 4.5 µM.

**Q.** And the TGI (T47D)?
**A.** The TGI was 22.3 µM.

**Q.** And the CC50 (T47D)?
**A.** Its CC50 is 95 µM.

**Q.** Which inhibition of growth at 10 µM (UO-31) does the source give for `O=C1NC(=O)C(=Cc2cn(C(=O)c3ccc(Cl)cc3)c3ccccc23)C(=O)N1` here?
**A.** Its inhibition of growth at 10 µM is 22%.

**Q.** For `CN1C(=O)C(=Cc2c[nH]c3ccccc23)C(=O)N(C)C1=O`, which inhibition of growth at 10 µM (UO-31) is on record?
**A.** Its inhibition of growth at 10 µM is 33%.

**Q.** With `CN1C(=O)C(=Cc2cn(C(=O)c3ccc(Cl)cc3)c3ccccc23)C(=O)N(C)C1=O` as the molecule, how does the inhibition of growth at 10 µM (RXF 393) read?
**A.** The inhibition of growth at 10 µM was 33%.

**Q.** Which results are given for `CN1C(=O)C(=Cc2cn(Cc3ccccc3)c3ccccc23)C(=O)N(C)C1=O`?
**A.** inhibition of growth at 10 µM (TK-10 [1]): 95%; inhibition of growth at 10 µM (UO-31): 36%; GI50 (OVCAR-5): 100 nM; TGI (OVCAR-5): 670 nM; CC50 (OVCAR-5): > 100 µM; GI50 (COLO 205): 700 nM; TGI (COLO 205): 9.1 µM; CC50 (COLO 205): > 100 µM; GI50 (NCI-H226): 3.4 µM; LC50 (NCI-H226): > 100 µM; TGI (NCI-H226): 27 µM; GI50 (TK-10 [2]): 3100 nM; TGI (TK-10 [2]): 57.5 µM; CC50 (TK-10 [2]): > 100 µM; GI50 (CAKI-1): 500 nM; LC50 (CAKI-1): > 100 µM; TGI (CAKI-1): 6.4 µM; GI50 (MDA-MB-468): 20 nM; TGI (MDA-MB-468): 60 nM; CC50 (MDA-MB-468): 690 nM; GI50 [3]: 13.8 µM; GI50 (IGROV-1): 60 nM; TGI (IGROV-1): 0.26 µM; CC50 (IGROV-1): 0.85 µM; GI50 (HOP-92): 8.3 µM; TGI (HOP-92): 50 µM; CC50 (HOP-92): > 100 µM; inhibition of growth at 10 µM (RXF 393): 43%; GI50 (SF-295): 1100 nM; TGI (SF-295): > 100 µM; CC50 (SF-295): > 100 µM; GI50 (OVCAR-4): 6.1 µM; TGI (OVCAR-4): > 100 µM; CC50 (OVCAR-4): > 100 µM; GI50 (A498): 200 nM; TGI (A498): 640 nM; CC50 (A498): 2290 nM; GI50 (NCI-H460): 4100 nM; LC50 (NCI-H460): > 100 µM; TGI (NCI-H460): > 100 µM; GI50 (K562): 4.3 µM; TGI (K562): > 100 µM; CC50 (K562): > 100 µM; GI50 (UACC-62): 1000 nM; LC50 (UACC-62): > 100 µM; TGI (UACC-62): 12.5 µM; GI50 (SK-MEL-2): 3000 nM; TGI (SK-MEL-2): 45.7 µM; CC50 (SK-MEL-2): > 100 µM; GI50 (T47D): 5 µM; TGI (T47D): > 100 µM; CC50 (T47D): > 100 µM

**Q.** For `Cc1ccc(S(=O)(=O)n2cc(C=C3C(=O)NC(=O)NC3=O)c3ccccc32)cc1`, which inhibition of growth at 10 µM (UO-31) is on record?
**A.** Its inhibition of growth at 10 µM is 32%.

**Q.** With `CN1C(=O)C(=Cc2cn(C(=O)c3ccccc3)c3ccccc23)C(=O)N(C)C1=O` as the molecule, how does the inhibition of growth at 10 µM (UO-31) read?
**A.** Its inhibition of growth at 10 µM is 36%.

**Q.** What about the inhibition of growth at 10 µM (RXF 393) of the same molecule?
**A.** Its inhibition of growth at 10 µM is 55%.

**Q.** For `O=c1[nH]cc(F)c(=O)[nH]1` [FLUOROURACIL], which GI50 [3] is on record?
**A.** The GI50 was 17.7 µM.

**Q.** For `COc1ccc2c(c1)c(CC(=O)O)c(C)n2C(=O)c1ccc(Cl)cc1` [INDOMETHACIN], which GI50 [3] is on record?
**A.** The GI50 was 64.3 µM.
